Laboratory results reported in patent publication US9102657B2, “Sodium salt of (R)-3-[6-amino-pyridin-3-yl]-2-(1-cyclohexyl-1H-imidazol-4-yl)-propionic acid” (Sanofi, priority 2011, dated 2015).

Columns and labels:
[1] = Chiral stability: solid stored at 40° C. and 75% RH, enantiomeric excess by chiral HPLC; settings: for Enantiomeric excess: storage condition (B): solid, 40° C. and 75% RH, 4 weeks; for chemical / chiral stability (in words): elevated temperature and humidity, storage 40° C. and 75% RH, sodium salt dihydrate
Description: Enantiomeric excess was determined by chiral HPLC on a HPLC system containing a Quaternary HPLC pump (e.g. HP 1100), an auto sampler, an UV absorbance detector (e.g. DAD Agilent Technologies or other adequate HPLC-System) and a computer data acquisition system with suitable software (e.g. Dionex-Chromeleon). A Chirobiotic R, Supelco (Astec) (4.6×250 mm; 5 μm) column was used as stationary phase and a solution of 800 mL water, 1200 mL acetonitrile and 1.0 g ammoniumacetate was used as mobile phase. The flow rate was set to a value of 1.5 mL/minute and the oven temperature was set to 45° C. Detection was performed by absorbance of the compounds at 236 nm (UV) (bandwidth: 8 nm) and reference wavelength was set to 450 nm (bandwidth: 50 nm). Typical total run times were in the range of about 15 minutes. For sample preparation 50 mg of the substance were accurately weighed into a 10 mL volumetric flask and dissolved and diluted to volume with solvent (acetonitrile/water 50:50). For the HPLC analysis 5 μL of the sample were injected into the system.
Gradient used: Isograt (15 minutes 100% mobile phase A)

[2] = Dynamic Vapor Sorption (DVS), moisture sorption/desorption isotherms at 25° C.; format: physicochemical
Description: Moisture sorption/desorption isotherms were recorded on a SPS11-10μ from Projekt Messtechnik (Ulm, Germany). One cycle was run at 25° C., in which the sample was first stepwise decreased to 0% Room humidity (RH) and then the relative humidity was stepwise increased from 0 to 95% and the weight of the sample was measured. Typical total measurement times for both cycles were about 20 to 30 hours.

Enantiomeric excess [1] [%] | Enantiomeric excess ([1]; listed as (R)-3-[6-amino-pyridin-3-yl]-2-(1-cyclohexyl-1H-imidazol-4-yl)-propionic acid) [%] | chemical / chiral stability (in words) ([1]; listed as sodium salt of (R)-3-[6-amino-pyridin-3-yl]-2-(1-cyclohexyl-1H-imidazol-4-yl)-pr) | chemical / chiral stability (in words) [1] | Compound | hygroscopicity, absorption or adsorption of water from the surrounding environment (in words) [2] | sorption and desorption isotherms (in words) ([2]; DVS 25° C., between 30% relative humidity and 0.4% relative humidity)
91.6 | 91.6 |  |  | Nc1ccc(C[C@@H](C(=O)O)c2cn(C3CCCCC3)cn2)cn1 [Example 1, (R)-3-[6-amino-pyridin-3-yl]-2-(1-cyclohexyl-1H-imidazol-4-yl)-propionic acid] |  | 
 |  | chemically stable | remain stable | Nc1ccc(C[C@@H](C(=O)[O-])c2cn(C3CCCCC3)cn2)cn1.[Na+] [Example 3, (R)-3-[6-amino-pyridin-3-yl]-2-(1-cyclohexyl-1H-imidazol-4-yl)-propionic acid sodium salt dihydrate] | favorable reduced absorption or adsorption of water molecules | almost the same (low water uptake or water desorption)
 |  |  |  | Nc1ccc(CC(C(=O)O)c2cn(C3CCCCC3)cn2)cn1 (stereo not shown) [3-[6-amino-pyridin-3-yl]-2-(1-cyclohexyl-1H-imidazol-4-yl)-propionic acid] | hygroscopic | 
